Laboratory results from patent US20260083769A1, “2-Aminopropane-1,3-Diol-Capped Cationic Peptoids for Nucleic Acid Delivery” (NUTCRACKER THERAPEUTICS, INC., priority 2022, published 2026).
Where two headings read alike, the source gives them in different places. Where a SMILES comes first, the peptide text is derived from it. [ ]: non-standard residue; d: D form. N(2-ethylhexyl)Gly = CCCCC(CC)CNCC(=O)O; Gly(N-dodecyl) = CCCCCCCCCCCCNCC(=O)O; N(CH(CH2OH)2)Gly = O=C(O)CNC(CO)CO; N(octyl)Gly = CCCCCCCCNCC(=O)O; NDecylGly = CCCCCCCCCCNCC(=O)O

Experiments:
[1] = Particle size and polydispersity (PDI) of delivery vehicles by dynamic light scattering; format: physicochemical; conditions: Table 5; delivery vehicle comprising the peptoid, Formulation D22, fLuc mRNA
Procedure: The resulting delivery vehicle complexes were evaluated by dynamic light scattering (DLS) to determine the volume average particle size/diameter (nm) and the size polydispersity index (PDI) within the delivery vehicle complex.
Particle size. Particle sizes and size distributions were measured using a Wyatt DynaPro® Plate Reader III. In general, formulated samples were diluted to 2 ng/μL in 100 µL PBS. Data is reported as the hydrodynamic diameter (in nm) of the cumulant fit of the correlation function, and the polydispersity of that measurement.
(§1) In one particular instance, the size and polydispersity (PDI) of delivery vehicles was measured by dynamic light scattering in PBS using a DynaPro® plate reader III. The zeta potential of delivery vehicles was determined using Nano-ZS™ particle analyzer. Zeta sample was diluted to 30 uM total lipid in a weakly buffered solution of 10 mM HEPES, 10 mM MES, 10 mM ammonium acetate pH 7. Measurements were collected in duplicate for over 30 run with the voltage manually set to […]

[2] = Percent encapsulated mRNA, RiboGreen assay; format: physicochemical; conditions: Table 5; delivery vehicle comprising the peptoid, Formulation D22, fLuc mRNA
Procedure: Percent encapsulation. The percentage of mRNA encapsulated within the delivery vehicle complexes containing Fluc mRNA was determined using a modified RiboGreen® assay. In general, formulated mRNA samples were diluted to 500 ng/ml in Tris-EDTA buffer with or without Triton-X™. RiboGreen® (Invitrogen) was added at a 200-fold dilution, and the plate was incubated for 5 minutes. Fluorescence was measured at Ex. […]/Em. 520 nm and encapsulated mRNA was calculated by taking the ratio of fluorescence for non-lysed particles versus lysed particles.
The mRNA concentration and the percentage of encapsulated mRNA were determined using a fluorescence-based Quant-iT™ RiboGreen® RNA Reagent Kit using a literature procedure. To determine the mRNA concentration, delivery vehicles were incubated with 2% Triton™ X-100 for 10 min to release entrapped mRNA, followed by addition of RiboGreen® RNA reagent. The fluorescence intensity of mRNA-RiboGreen® reagent complex (excitation at 485 nm and emission at 530 nm) was detected using a microplate reader. The ratio of fluorescence without and with Triton™ X-100 were used to calculate the percentage of encapsulated mRNA.

[3] = Zeta potential of delivery vehicles; format: physicochemical; conditions: Table 5; delivery vehicle, pH 7 buffer; in mV (unit assumed)
Procedure: as §1

[4] = Apparent particle pKa, TNS fluorescence assay; format: physicochemical; conditions: Table 5; apparent particle pKa of delivery vehicle
Procedure: The apparent particle pKa was assessed by a TNS fluorescence assay. Briefly, particles were diluted to 130 uM total lipid in TNS buffer ranging in pH 3-11 for 10 minutes with […] of TNS probe. The fluorescence was measured at room temperature in a plate reader ex 320/em 445. Fluorescence intensity was normalized to the minimal and maximal values and the pKa was determined by a 3 parameter fit to determine the half maximum of the curve.

[5] = RBC hemolysis as metric for fusogenicity; format: cell-based; conditions: sheep red blood cells (RBCs), 5% v/v, Table 5, delivery vehicle, 37° C. 45 min
Procedure: RBC hemolysis was used as a metric for fusogenicity of LNPs at low pH. […] Particles were diluted to […] total lipid in well with 5% RBC solution and incubated at 37° C. for 45 min. Supernatant was collected and absorbance read on a microplate reader at 425 nm. Fusion was normalized to a fully lysed sample with 2% Triton™ and a buffer-only control. % hemolysis=100*[(ABS T-background)−(ABS sample-background)/(ABS T-background)].

[6] = tested on: BALB/c mice; experiment: In vivo fLuc mRNA expression after IV dose, whole body and organ bioluminescence; conditions: BALB/c mice, IV, luminescence 6 hours after dose, lipid block screen
Description: In one particular instance, peptoids disclosed herein were formulated into delivery vehicles by first dissolving in ethanol along with DSPC, cholesterol, and DMG-PEG2000 at weight ratio of 20:1.8:7.2:1.8 (Formulation D22 in Table 3, above), then mixed with firefly luciferase (fLuc) mRNA dissolved in an aqueous buffer at a volume ratio of 1:3 via microfluidic nanoprecipitation on a turbulent mixing device, resulting in small, low dispersity particles. Physical particle properties were characterized. Delivery vehicles with initial sizes larger than 120 nm were not brought forward into in vivo screening as liver fenestrae primarily accommodate LNPs sized under 100 nm. In vivo expression of delivery vehicles comprising peptoids with varied headgroups was evaluated using fLuc expression in BALB/c mice 6 hours after IV dose (FIG. 1). […] The aminoethyl and aminopropyl headgroups both show preferential expression in lung (FIG. 2), potentially due to the high basicity of the pendant primary amine, as groups with higher pKas are known to accumulate in that organ. […] While spleen and lung selectivity merit further optimization for future therapeutic applications, liver-selective targets were used for further studies herein to prepare for systemic delivery of antibody targets and maximize their serum expression with anti-RSV cargo.
Intravenous administration. The delivery vehicle complexes disclosed herein are effective for in vivo administration of Fluc mRNA to BALB/c mice through multiple routes of administration. In general, delivery system complexes were administered at a dose of 0.5 mg/kg via a tail-vein injection, and the resulting bioluminescence was quantified after 6 hours. Organ-specific bioluminescence was quantified by sacrificing the treated animal, dissecting out the organs of interest, and separately quantifying the resulting bioluminescence
In one particular instance, to investigate how the peptoid lipid block impacts in vivo expression, delivery vehicles with diameter larger than 120 nm were excluded and remaining candidates were administered IV to BALB/c mice. Luminescence was measured after 6 hours and the resulting expression in liver, lung and spleen were quantified. Even without changing the cationic headgroup, luciferase expression spanned 4 orders of magnitude as a result of altering the lipid block in this series. […] In vivo expression of all candidates was then fit to a multi-parameter model containing the 4 input parameters to understand the individual contributions of each factor to overall performance. […] Contour plots of the impact of these factors on expression (all using Ehx as the branched/unsaturated monomer) are shown in FIG. 4.
For imaging studies, female BALB/c mice (6-8 weeks old) were obtained and acclimatized for a minimum of 3 days prior to experiments. The animals were maintained on a 12 hour light cycle in a temperature and humidity controlled room. A daily health check was performed as well as food and water check. For dosing, mice were injected with 2.5 μg fLuc mRNA-containing delivery vehicles intravenously in 100 μL total injection volume. At 6 hours post-injection, mice were anesthetized with isoflurane, and injected intraperitoneally with 30 mg/mL D-luciferin at a dose of 10 μL per gram bodyweight intraperitoneally. Imaging was done 10 minutes post D-luciferin injection using an IVIS® Spectrum Imaging System. Immediately after in vivo imaging, mice were terminally bled by cardiac puncture and euthanized. The organs of interest were harvested, placed in black 24-well plates, and imaged. Living Image® software was used to quantify the total photon flux in regions of interest. For secreted protein studies, mice were injected with aRSV mRNA-containing delivery vehicles intravenously in 100 μL total injection volume. Mice were euthanized after 24 hours, with serum collection at 6 and 24 hours post-injection. […]

[7] = pH 5, read-out: Hemolysis at pH 5
[8] = pH 7, read-out: Hemolysis at pH 7

SMILES	PDI [1]	Particle Size (nm) [1] [nm]	% Encapsulation [2] [%]	Zeta Potential [3]	pKa (TNS) [4]	hemolysis at 45 min, 150 mM total lipid [5, 7] [%]	hemolysis at 45 min, 150 mM total lipid [5, 8] [%]	fLuc (luciferase) expression in vivo [6]
CCCCCCCCCCCCN(CC(=O)N(CCCCCCCCCCCC)CC(=O)N(CC(=O)N(CCCCCCCCCCCC)CC(=O)N(CCCCCCCCCCCC)CC(=O)N(CC(N)=O)CC(CC)CCCC)CC(CC)CCCC)C(=O)CNC(CO)CO (stereo not drawn) [Compound 30] (H-[N(CH(CH2OH)2)Gly][Gly(N-dodecyl)][Gly(N-dodecyl)][N(2-ethylhexyl)Gly][Gly(N-dodecyl)][Gly(N-dodecyl)][N(2-ethylhexyl)Gly]-NH2)	0.097	82.6	87.7	−1.41	6.084	17.3	2.1	
CCCCCCCCCCCCN(CC(=O)N(CCCCCCCCCCCC)CC(=O)N(CCCCCCCC)CC(=O)N(CCCCCCCCCCCC)CC(=O)N(CCCCCCCCCCCC)CC(=O)N(CCCCCCCC)CC(N)=O)C(=O)CNC(CO)CO [Compound 33] (H-[N(CH(CH2OH)2)Gly][Gly(N-dodecyl)][Gly(N-dodecyl)][N(octyl)Gly][Gly(N-dodecyl)][Gly(N-dodecyl)][N(octyl)Gly]-NH2)	1	165.8	−1.8	−2.12	5.935	0.9	0.4	
CCCCCCCCCCCCN(CC(=O)N(CC(N)=O)CC(CC)CCCC)C(=O)CN(CCCCCCCC)C(=O)CN(CC(CC)CCCC)C(=O)CN(CCCCCCCCCCCC)C(=O)CN(CCCCCCCC)C(=O)CNC(CO)CO (stereo not drawn) [Compound 35] (H-[N(CH(CH2OH)2)Gly][N(octyl)Gly][Gly(N-dodecyl)][N(2-ethylhexyl)Gly][N(octyl)Gly][Gly(N-dodecyl)][N(2-ethylhexyl)Gly]-NH2)	0.082	90.7	76.1	−5.88	5.937	4.5	5.1	top expressers
CCCCCCCCCCCCN(CC(N)=O)C(=O)CN(CC(CC)CCCC)C(=O)CN(CCCCCCCCCCCC)C(=O)CN(CCCCCCCCCCCC)C(=O)CN(CC(CC)CCCC)C(=O)CN(CCCCCCCCCCCC)C(=O)CNC(CO)CO (stereo not drawn) [Compound 40] (H-[N(CH(CH2OH)2)Gly][Gly(N-dodecyl)][N(2-ethylhexyl)Gly][Gly(N-dodecyl)][Gly(N-dodecyl)][N(2-ethylhexyl)Gly][Gly(N-dodecyl)]-NH2)	Multimodal	270.5	55.9	−7.48	4.883	0.5	-0.1	

Now from value to compound, other results behind:

PDI [1]	Particle Size (nm) [1] [nm]	% Encapsulation [2] [%]	Zeta Potential [3]	pKa (TNS) [4]	SMILES	hemolysis at 45 min, 150 mM total lipid [5, 7] [%]	hemolysis at 45 min, 150 mM total lipid [5, 8] [%]	fLuc (luciferase) expression in vivo [6]
0.089	86.6	82.2	−5.98	5.844	CCCCCCCCCCN(CC(=O)N(CC(N)=O)CC(CC)CCCC)C(=O)CN(CCCCCCCC)C(=O)CN(CC(CC)CCCC)C(=O)CN(CCCCCCCCCC)C(=O)CN(CCCCCCCC)C(=O)CNC(CO)CO (stereo not drawn) [Compound 28] (H-[N(CH(CH2OH)2)Gly][N(octyl)Gly][NDecylGly][N(2-ethylhexyl)Gly][N(octyl)Gly][NDecylGly][N(2-ethylhexyl)Gly]-NH2)	15.1	5.6	
0.094	92.7	81.9	−7.04	6.044	CCCCCCCCCCN(CC(=O)N(CCCCCCCCCC)CC(=O)N(CC(=O)N(CCCCCCCCCC)CC(=O)N(CCCCCCCCCC)CC(=O)N(CC(N)=O)CC(CC)CCCC)CC(CC)CCCC)C(=O)CNC(CO)CO (stereo not drawn) [Compound 29] (H-[N(CH(CH2OH)2)Gly][NDecylGly][NDecylGly][N(2-ethylhexyl)Gly][NDecylGly][NDecylGly][N(2-ethylhexyl)Gly]-NH2)	4.8	1.3	
Multimodal	181.4	56.4	−0.676	6.418	CCCCCCCCCCN(CC(N)=O)C(=O)CN(CCCCCCCCCC)C(=O)CN(CCCCCCCCCC)C(=O)CN(CCCCCCCCCC)C(=O)CNC(CO)CO [Compound 37]	7.8	23.9	
0.194	98.1	76.4	2.39	6.936	CCCCCCCC/C=C\CCCCCCCCN(CC(=O)N(CCCCCCCC)CC(=O)N(CCCCCCCC/C=C\CCCCCCCC)CC(=O)N(CCCCCCCC)CC(N)=O)C(=O)CNC(CO)CO [Compound 44]	51.6	95.8	
